# Reference: patent US12448389B2, “BRM targeting compounds and associated methods of use” (Prelude Therapeutics Incorporated, priority 2020, dated 2025)
# Legend:
# SMARCA4-HiBiT = molecular target: T1, SMARCA4-HiBiT (Homo sapiens, UniProt P51532); experiment: SMARCA4 HiBiT degradation assay in HeLa cells; assay type: cell-based; conditions: 18 hours incubation; for DC50: read-out: HeLa-HiBit-SM4 DC50; for Dmax: HeLa, read-out: HeLa-HiBit-SM4 Dmax (%)
# T1 construct: SMARCA4-HiBiT knock-in Hela monoclonal cell (CS3023226); host or cells: HeLa monoclonal knock-in line (CRISPR HiBiT knock-in at the endogenous locus, heterozygous)
# Method in brief: (§1)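 HeLa monoclonal lines with heterozygous HiBiT knock-in were seeded at 2500 cells/well in EMEM with 10% FBS and treated with compound for 18 h at 37 °C. Remaining tagged protein was measured by Nano-Glo HiBiT lytic luminescence after 30–60 min at RT, and values came from curve fitting.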
# SMARCA2-HiBiT = molecular target: T2, SMARCA2-HiBiT (Homo sapiens, UniProt P51531); experiment: SMARCA2 HiBiT degradation assay in HeLa cells; assay type: cell-based; conditions: 18 hours incubation; for DC50: read-out: HeLa_HiBit-SM2 DC50; for Dmax: HeLa, read-out: HeLa-HiBit-SM2 Dmax (%)
# T2 construct: SMARCA2-HiBiT knock-in Hela monoclonal cell (CS302366); host or cells: HeLa monoclonal knock-in line (CRISPR HiBiT knock-in at the endogenous locus, heterozygous)
# Method in brief: as §1
# T2 sequence (P51531 whole entry): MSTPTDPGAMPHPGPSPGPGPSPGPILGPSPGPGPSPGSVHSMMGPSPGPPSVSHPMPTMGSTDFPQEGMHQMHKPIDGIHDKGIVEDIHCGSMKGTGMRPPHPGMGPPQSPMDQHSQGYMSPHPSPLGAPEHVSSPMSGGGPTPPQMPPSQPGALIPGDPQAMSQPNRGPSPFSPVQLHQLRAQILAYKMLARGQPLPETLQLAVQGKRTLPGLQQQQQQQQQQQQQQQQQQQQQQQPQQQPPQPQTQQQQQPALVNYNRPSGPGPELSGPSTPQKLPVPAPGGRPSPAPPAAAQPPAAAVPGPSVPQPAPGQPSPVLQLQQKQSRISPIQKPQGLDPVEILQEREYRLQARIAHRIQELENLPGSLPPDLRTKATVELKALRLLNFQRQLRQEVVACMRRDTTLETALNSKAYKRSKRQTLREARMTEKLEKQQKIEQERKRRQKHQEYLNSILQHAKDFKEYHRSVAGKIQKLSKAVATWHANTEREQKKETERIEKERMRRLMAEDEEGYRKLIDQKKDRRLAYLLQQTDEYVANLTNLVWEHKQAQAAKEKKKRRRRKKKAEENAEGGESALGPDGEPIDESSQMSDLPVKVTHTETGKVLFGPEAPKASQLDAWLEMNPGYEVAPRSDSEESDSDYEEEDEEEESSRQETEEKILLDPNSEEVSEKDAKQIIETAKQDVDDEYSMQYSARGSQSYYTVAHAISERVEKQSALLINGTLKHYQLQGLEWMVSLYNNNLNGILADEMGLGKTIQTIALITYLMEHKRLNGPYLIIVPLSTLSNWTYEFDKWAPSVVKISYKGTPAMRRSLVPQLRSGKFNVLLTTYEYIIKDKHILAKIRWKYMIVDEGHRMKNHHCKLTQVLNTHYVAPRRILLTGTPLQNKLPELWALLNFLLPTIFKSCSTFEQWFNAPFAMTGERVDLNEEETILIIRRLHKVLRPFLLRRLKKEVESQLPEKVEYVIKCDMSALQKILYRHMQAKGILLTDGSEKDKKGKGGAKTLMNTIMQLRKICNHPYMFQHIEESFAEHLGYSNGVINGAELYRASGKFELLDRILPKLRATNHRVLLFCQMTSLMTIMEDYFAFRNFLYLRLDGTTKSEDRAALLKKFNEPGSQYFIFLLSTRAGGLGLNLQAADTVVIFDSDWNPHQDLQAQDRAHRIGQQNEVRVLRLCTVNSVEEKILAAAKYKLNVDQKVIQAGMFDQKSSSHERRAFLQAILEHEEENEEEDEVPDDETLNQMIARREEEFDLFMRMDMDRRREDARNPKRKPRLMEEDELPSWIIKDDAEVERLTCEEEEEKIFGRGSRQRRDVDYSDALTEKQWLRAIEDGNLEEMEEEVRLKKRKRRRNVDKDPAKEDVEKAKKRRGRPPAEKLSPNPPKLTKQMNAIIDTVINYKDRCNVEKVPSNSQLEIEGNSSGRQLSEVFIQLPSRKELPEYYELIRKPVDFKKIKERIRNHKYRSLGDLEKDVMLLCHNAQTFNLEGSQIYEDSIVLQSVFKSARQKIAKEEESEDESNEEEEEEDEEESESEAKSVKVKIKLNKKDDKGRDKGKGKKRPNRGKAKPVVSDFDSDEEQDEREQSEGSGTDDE
# T1 sequence (P51532 whole entry): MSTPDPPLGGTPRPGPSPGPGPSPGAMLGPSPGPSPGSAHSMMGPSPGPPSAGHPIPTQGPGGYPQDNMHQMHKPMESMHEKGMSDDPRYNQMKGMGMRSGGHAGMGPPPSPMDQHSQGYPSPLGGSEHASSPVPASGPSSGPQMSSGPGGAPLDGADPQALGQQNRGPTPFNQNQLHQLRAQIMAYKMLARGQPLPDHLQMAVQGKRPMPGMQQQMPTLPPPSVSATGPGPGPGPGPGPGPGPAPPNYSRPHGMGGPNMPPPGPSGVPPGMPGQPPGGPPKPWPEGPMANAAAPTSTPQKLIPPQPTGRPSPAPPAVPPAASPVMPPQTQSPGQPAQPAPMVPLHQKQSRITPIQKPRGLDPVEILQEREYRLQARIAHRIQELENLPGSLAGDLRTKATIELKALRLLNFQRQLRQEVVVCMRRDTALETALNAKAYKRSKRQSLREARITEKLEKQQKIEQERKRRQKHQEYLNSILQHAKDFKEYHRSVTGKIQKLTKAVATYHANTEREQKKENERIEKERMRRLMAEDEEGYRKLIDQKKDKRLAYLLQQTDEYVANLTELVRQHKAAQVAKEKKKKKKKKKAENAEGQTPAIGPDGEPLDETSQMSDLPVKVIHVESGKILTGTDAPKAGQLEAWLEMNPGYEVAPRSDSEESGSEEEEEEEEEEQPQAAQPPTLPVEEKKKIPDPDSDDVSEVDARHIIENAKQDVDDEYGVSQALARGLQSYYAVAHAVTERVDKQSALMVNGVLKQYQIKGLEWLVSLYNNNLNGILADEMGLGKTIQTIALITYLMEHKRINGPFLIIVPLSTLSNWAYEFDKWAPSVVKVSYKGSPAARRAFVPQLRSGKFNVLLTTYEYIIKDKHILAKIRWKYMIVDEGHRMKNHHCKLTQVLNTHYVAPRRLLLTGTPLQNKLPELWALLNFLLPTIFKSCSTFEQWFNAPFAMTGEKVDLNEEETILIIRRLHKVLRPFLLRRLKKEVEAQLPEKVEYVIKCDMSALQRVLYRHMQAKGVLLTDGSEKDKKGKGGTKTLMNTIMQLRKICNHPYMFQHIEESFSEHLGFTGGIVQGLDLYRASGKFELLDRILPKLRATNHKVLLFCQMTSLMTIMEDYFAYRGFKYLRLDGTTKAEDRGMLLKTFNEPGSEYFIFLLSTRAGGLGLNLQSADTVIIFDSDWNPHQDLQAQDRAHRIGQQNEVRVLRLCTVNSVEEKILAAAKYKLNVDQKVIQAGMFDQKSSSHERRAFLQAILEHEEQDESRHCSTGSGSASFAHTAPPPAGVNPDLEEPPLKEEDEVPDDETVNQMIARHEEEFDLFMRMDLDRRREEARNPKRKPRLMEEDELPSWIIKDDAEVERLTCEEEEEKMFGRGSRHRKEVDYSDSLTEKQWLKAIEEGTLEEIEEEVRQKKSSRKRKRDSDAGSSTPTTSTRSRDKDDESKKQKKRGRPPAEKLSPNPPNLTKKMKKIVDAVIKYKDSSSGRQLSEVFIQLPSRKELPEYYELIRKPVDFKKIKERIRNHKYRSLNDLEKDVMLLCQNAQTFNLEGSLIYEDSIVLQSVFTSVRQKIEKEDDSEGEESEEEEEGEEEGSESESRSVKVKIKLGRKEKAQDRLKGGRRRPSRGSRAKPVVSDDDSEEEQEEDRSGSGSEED
SMILES,DC50 (SMARCA4-HiBiT),Dmax (SMARCA4-HiBiT),DC50 (SMARCA2-HiBiT),Dmax (SMARCA2-HiBiT)
"O=C1CCC(N2Cc3ccc(C4CCN(CCCN5CCC(CN6CCN7c8cc(-c9ccccc9O)nnc8NC[C@H]7C6)CC5)CC4)cc3C2=O)C(=O)N1 (stereo partly drawn) [Example 122, 3-(6-(1-(3-(4-(((S)-2-(2-hydroxyphenyl)-5,6,6a,7,9,10-hexahydro-8H-pyrazino[1′,2′:4,5]pyrazino[2,3-c]pyridazin-8-yl)methyl)piperidin-1-yl)propyl)piperidin-4-yl)-1-oxoisoindolin-2-yl)piperidine-2,6-dione]",10 to 100 nM,75 to 85%,10 to 100 nM,> 85%
"CN(CCCCN1CCC(CN2CCN3c4cc(-c5ccccc5O)nnc4NC[C@H]3C2)CC1)c1ccc2c(c1)C(=O)N(C1CCC(=O)NC1=O)C2=O (stereo partly drawn) [Example 227, 2-(2,6-dioxopiperidin-3-yl)-5-((4-(4-(((S)-2-(2-hydroxyphenyl)-5,6,6a,7,9,10-hexahydro-8H-pyrazino[1′,2′:4,5]pyrazino[2,3-c]pyridazin-8-yl)methyl)piperidin-1-yl)butyl)(methyl)amino)isoindoline-1,3-dione]",10 to 100 nM,50 to 75%,< 10 nM,50 to 75%
"O=C1CCC(N2C(=O)c3ccc(N4CCC(F)(CN5C[C@@H]6[C@@H](CN7CCN8c9cc(-c%10ccccc%10O)nnc9NC[C@H]8C7)[C@@H]6C5)CC4)cc3C2=O)C(=O)N1 (stereo partly drawn) [Example 149, 2-(2,6-dioxopiperidin-3-yl)-5-(4-fluoro-4-(((1R,5S,6s)-6-(((S)-2-(2-hydroxyphenyl)-5,6,6a,7,9,10-hexahydro-8H-pyrazino[1′,2′:4,5]pyrazino[2,3-c]pyridazin-8-yl)methyl)-3-azabicyclo[3.1.0]hexan-3-yl)methyl)piperidin-1-yl)isoindoline-1,3-dione]",10 to 100 nM,50 to 75%,< 10 nM,50 to 75%
"O=C1CCC(N2Cc3ccc(N4CCOC(CN5CCC(C(=O)N6CCN7c8cc(-c9ccccc9O)nnc8NC[C@H]7C6)CC5)C4)cc3C2=O)C(=O)N1 (stereo partly drawn) [Example 113, 3-(6-(2-((4-((S)-2-(2-hydroxyphenyl)-6,6a,7,8,9,10-hexahydro-5H-pyrazino[1′,2′:4,5]pyrazino[2,3-c]pyridazine-8-carbonyl)piperidin-1-yl)methyl)morpholino)-1-oxoisoindolin-2-yl)piperidine-2,6-dione]",10 to 100 nM,50 to 75%,< 10 nM,≤ 50%
"O=C1CCC(N2Cc3ccc(N4CC[C@H](CN5CCC(C(=O)N6CCN7c8cc(-c9ccccc9O)nnc8NC[C@H]7C6)CC5)[C@@H](F)C4)cc3C2=O)C(=O)N1 (stereo partly drawn) [Example 261, 3-(6-((3R,4R)-3-fluoro-4-((4-((S)-2-(2-hydroxyphenyl)-6,6a,7,8,9,10-hexahydro-5H-pyrazino[1′,2′:4,5]pyrazino[2,3-c]pyridazine-8-carbonyl)piperidin-1-yl)methyl)piperidin-1-yl)-1-oxoisoindolin-2-yl)piperidine-2,6-dione]",10 to 100 nM,75 to 85%,< 10 nM,> 85%
"CN(CCN1CCC(C(=O)N2CCN3c4cc(-c5ccccc5O)nnc4NC[C@H]3C2)CC1)c1ccc2c(c1)C(=O)N(C1CCC(=O)NC1=O)C2=O (stereo partly drawn) [Example 222, 2-(2,6-dioxopiperidin-3-yl)-5-((2-(4-((S)-2-(2-hydroxyphenyl)-6,6a,7,8,9,10-hexahydro-5H-pyrazino[1′,2′:4,5]pyrazino[2,3-c]pyridazine-8-carbonyl)piperidin-1-yl)ethyl)(methyl)amino) isoindoline-1,3-dione]",100 to 1000 nM,≤ 50%,< 10 nM,50 to 75%
"C[C@H]1CN2c3cc(-c4ccccc4O)nnc3NC[C@H]2CN1C[C@H]1[C@@H]2CN(CC3CCN(c4ccc5c(c4)C(=O)N(C4CCC(=O)NC4=O)C5=O)CC3)C[C@@H]21 (stereo partly drawn) [Example 44, 2-(2,6-dioxopiperidin-3-yl)-5-(4-(((1R,5S,6r)-6-(((6aS,9S)-2-(2-hydroxyphenyl)-9-methyl-5,6,6a,7,9,10-hexahydro-8H-pyrazino[1′,2′:4,5]pyrazino[2,3-c]pyridazin-8-yl)methyl)-3-azabicyclo[3.1.0]hexan-3-yl)methyl)piperidin-1-yl)isoindoline-1,3-dione]",< 10 nM,50 to 75%,< 10 nM,75 to 85%

# More lines, now with the values ahead:
DC50 (SMARCA4-HiBiT),Dmax (SMARCA4-HiBiT),DC50 (SMARCA2-HiBiT),Dmax (SMARCA2-HiBiT),SMILES
< 10 nM,50 to 75%,< 10 nM,> 85%,"O=C1CCC(N2C(=O)c3ccc(OC4CCN(CC5CCN(CCN6CCN7c8cc(-c9ccccc9O)nnc8NC[C@H]7C6)CC5)CC4)cc3C2=O)C(=O)N1 (stereo partly drawn) [Example 216, 2-(2,6-dioxopiperidin-3-yl)-5-((1-((1-(2-((S)-2-(2-hydroxyphenyl)-5,6,6a,7,9,10-hexahydro-8H-pyrazino[1′,2′:4,5]pyrazino[2,3-c]pyridazin-8-yl)ethyl)piperidin-4-yl)methyl)piperidin-4-yl)oxy) isoindoline-N, 3-dione]"
< 10 nM,75 to 85%,< 10 nM,> 85%,"O=C1CCC(N2C(=O)c3ccc(N4CCC(CN5CC6COCC(C5)C6CN5CCN6c7cc(-c8ccccc8O)nnc7NC[C@H]6C5)CC4)cc3C2=O)C(=O)N1 (stereo partly drawn) [Example 132, 2-(2,6-dioxopiperidin-3-yl)-5-(4-((9-(((S)-2-(2-hydroxyphenyl)-5,6,6a,7,9,10-hexahydro-8H-pyrazino[1′,2′:4,5]pyrazino[2,3-c]pyridazin-8-yl)methyl)-3-oxa-7-azabicyclo[3.3.1]nonan-7-yl)methyl)piperidin-1-yl)isoindoline-1,3-dione]"
< 10 nM,50 to 75%,< 10 nM,> 85%,"O=C1CCC(N2C(=O)c3ccc(N4CCC(CN5C[C@@H]6[C@H](C5)[C@H]6CN5CCN6c7cc(-c8ccccc8O)nnc7NC[C@H]6C5)CC4)cc3C2=O)C(=O)N1 (stereo partly drawn) [Example 42, 2-(2,6-dioxopiperidin-3-yl)-5-(4-(((1R,5S,6r)-6-(((S)-2-(2-hydroxyphenyl)-5,6,6a,7,9,10-hexahydro-8H-pyrazino[1′,2′:4,5]pyrazino[2,3-c]pyridazin-8-yl)methyl)-3-azabicyclo[3.1.0]hexan-3-yl)methyl)piperidin-1-yl)isoindoline-1,3-dione]"
< 10 nM,> 85%,< 10 nM,> 85%,"O=C1CCC(N2Cc3cc(C4CCN(C5CCN(CCCN6CCN7c8cc(-c9ccccc9O)nnc8NC[C@H]7C6)CC5)CC4)ccc3C2=O)C(=O)N1 (stereo partly drawn) [Example 209, 3-(5-(1′-(3-((S)-2-(2-hydroxyphenyl)-5,6,6a,7,9,10-hexahydro-8H-pyrazino[1′,2′:4,5]pyrazino[2,3-c]pyridazin-8-yl)propyl)-[1,4′-bipiperidin]-4-yl)-1-oxoisoindolin-2-yl)piperidine-2,6-dione]"
< 10 nM,50 to 75%,< 10 nM,50 to 75%,"O=C1CCC(N2C(=O)c3ccc(N4C[C@@H]5[C@@H](CN6CCC(CN7CCN8c9cc(-c%10ccccc%10O)nnc9NC[C@H]8C7)CC6)[C@@H]5C4)cc3C2=O)C(=O)N1 (stereo partly drawn) [Example 154, 2-(2,6-dioxopiperidin-3-yl)-5-((1R,5S,6s)-6-((4-(((S)-2-(2-hydroxyphenyl)-5,6,6a,7,9,10-hexahydro-8H-pyrazino[1′,2′:4,5]pyrazino[2,3-c]pyridazin-8-yl)methyl)piperidin-1-yl)methyl)-3-azabicyclo[3.1.0]hexan-3-yl)isoindoline-1,3-dione]"
< 10 nM,50 to 75%,< 10 nM,50 to 75%,"O=C1CCC(N2C(=O)c3cccc(N4CCC(OCCN5CCC(N6CCN7c8cc(-c9ccccc9O)nnc8NC[C@H]7C6)CC5)CC4)c3C2=O)C(=O)N1 (stereo partly drawn) [Example 67, 2-(2,6-dioxopiperidin-3-yl)-4-(4-(2-(4-((S)-2-(2-hydroxyphenyl)-5,6,6a,7,9,10-hexahydro-8H-pyrazino[1′,2′:4,5]pyrazino[2,3-c]pyridazin-8-yl)piperidin-1-yl)ethoxy)piperidin-1-yl)isoindoline-1,3-dione]"
< 10 nM,> 85%,< 10 nM,> 85%,"O=C1CCC(N2C(=O)c3ccc(N4CCC(CN5CC6(CC(CN7CCN8c9cc(-c%10ccccc%10O)nnc9NC[C@H]8C7)C6)C5)CC4)cc3C2=O)C(=O)N1 (stereo partly drawn) [Example 41, 2-(2,6-dioxopiperidin-3-yl)-5-(4-((6-(((S)-2-(2-hydroxyphenyl)-5,6,6a,7,9,10-hexahydro-8H-pyrazino[1′,2′:4,5]pyrazino[2,3-c]pyridazin-8-yl)methyl)-2-azaspiro[3.3]heptan-2-yl)methyl)piperidin-1-yl)isoindoline-1,3-dione]"
< 10 nM,50 to 75%,< 10 nM,50 to 75%,"CN(CCCN1CCN2c3cc(-c4ccccc4O)nnc3NC[C@H]2C1)CC1CCN(c2ccc3c(c2)C(=O)N(C2CCC(=O)NC2=O)C3=O)CC1 (stereo partly drawn) [Example 40, 2-(2,6-dioxopiperidin-3-yl)-5-(4-(((3-((S)-2-(2-hydroxyphenyl)-5,6,6a,7,9,10-hexahydro-8H-pyrazino[1′,2′:4,5]pyrazino[2,3-c]pyridazin-8-yl)propyl)(methyl)amino)methyl)piperidin-1-yl)isoindoline-1,3-dione]"
